{"source": "patent US6512136B1", "about": "“Substituted 2-phenyl-1-(3,4-dihydroxy-5-nitrophenyl)-1-ethanones, their use in the treatment of some central and peripheral nervous system disorders and pharmaceutical compositions containing them” (Portela & C.A., S.A., priority 1998, dated 2003)", "key": {"rats": {"test_system": "rats", "assay": "Behavioural testing: potentiation of amphetamine-induced hyperactivity (locomotor activity, stereotypies)", "type": "in vivo, rat"}, "brain COMT": {"molecular_target": "T1, brain COMT (Rattus norvegicus, UniProt P22734)", "T1 construct": "Aliquots of 0.5 ml of liver and whole brain homogenates were preincubated; from tissue; host or cells: whole brain homogenate of male Wistar rats", "T1 sequence (P22734 1-264)": "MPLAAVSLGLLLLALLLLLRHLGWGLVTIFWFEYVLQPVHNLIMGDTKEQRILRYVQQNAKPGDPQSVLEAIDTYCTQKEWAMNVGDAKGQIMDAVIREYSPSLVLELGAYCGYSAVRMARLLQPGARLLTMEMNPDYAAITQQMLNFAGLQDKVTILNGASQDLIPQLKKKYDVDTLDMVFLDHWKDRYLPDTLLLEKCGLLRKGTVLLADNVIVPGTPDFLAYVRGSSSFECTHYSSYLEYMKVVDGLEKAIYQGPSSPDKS", "assay": "Brain COMT activity in homogenates after administration of test compounds by gastric tube", "type": "in vivo"}, "liver COMT": {"molecular_target": "T2, liver COMT (Rattus norvegicus, UniProt P22734)", "T2 construct": "Aliquots of 0.5 ml of liver and whole brain homogenates were preincubated; from tissue; host or cells: liver homogenate of male Wistar rats", "T2 sequence (P22734 44-264 limits assumed)": "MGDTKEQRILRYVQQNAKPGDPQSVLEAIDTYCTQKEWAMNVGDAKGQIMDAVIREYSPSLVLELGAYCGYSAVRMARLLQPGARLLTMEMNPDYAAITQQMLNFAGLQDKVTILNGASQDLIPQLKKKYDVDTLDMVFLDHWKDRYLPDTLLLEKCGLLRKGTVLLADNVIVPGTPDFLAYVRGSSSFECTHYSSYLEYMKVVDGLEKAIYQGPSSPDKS", "assay": "Liver COMT activity in homogenates after administration of test compounds by gastric tube", "type": "in vivo"}, "[1]": {"settings": "literature values (Dingemanse 1995; Keranen 1994); cited from earlier work"}, "rat brain COMT": {"molecular_target": "T3, rat brain COMT (Rattus norvegicus, UniProt P22734)", "T3 construct": "Aliquots of 0.5 ml of liver and whole brain homogenates were preincubated; from tissue; host or cells: whole brain homogenate of male Wistar rats", "T3 sequence (P22734 1-264)": "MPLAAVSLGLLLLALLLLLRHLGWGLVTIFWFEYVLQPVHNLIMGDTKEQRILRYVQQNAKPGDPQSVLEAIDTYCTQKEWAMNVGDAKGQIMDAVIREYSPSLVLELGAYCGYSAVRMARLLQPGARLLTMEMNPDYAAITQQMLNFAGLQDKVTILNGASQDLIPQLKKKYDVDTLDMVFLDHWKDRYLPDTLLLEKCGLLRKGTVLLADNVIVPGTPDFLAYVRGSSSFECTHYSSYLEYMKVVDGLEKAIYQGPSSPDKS", "assay": "In vitro COMT inhibition, rat brain homogenate (methylation of adrenaline to metanephrine)", "type": "biochemical", "settings": "whole brain homogenate, saturation experiments"}, "rat liver COMT": {"molecular_target": "T4, rat liver COMT (Rattus norvegicus, UniProt P22734)", "T4 construct": "Aliquots of 0.5 ml of liver and whole brain homogenates were preincubated; from tissue; host or cells: liver homogenate of male Wistar rats", "T4 sequence (P22734 44-264 limits assumed)": "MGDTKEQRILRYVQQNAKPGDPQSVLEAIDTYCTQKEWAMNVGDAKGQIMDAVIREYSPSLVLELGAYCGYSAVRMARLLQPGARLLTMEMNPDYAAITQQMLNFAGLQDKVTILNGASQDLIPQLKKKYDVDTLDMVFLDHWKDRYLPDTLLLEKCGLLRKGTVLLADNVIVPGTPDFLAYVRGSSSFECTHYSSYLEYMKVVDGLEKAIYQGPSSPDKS", "assay": "In vitro COMT inhibition, rat liver homogenate (methylation of adrenaline to metanephrine)", "type": "biochemical", "settings": "liver homogenate, saturation experiments"}, "[2]": {"substrate": "CNCC(O)c1ccc(O)c(O)c1", "assay": "cells, lysate or membranes named", "settings": "saturation experiments, 95% confidence intervals, pH 7.8"}, "[3]": {"settings": "COMT inhibitor 30 mg/kg p.o. 6 h before amphetamine challenge (s.c.)"}}}
{"molecule": "CCN(CC)C(=O)/C(C#N)=C/c1cc(O)c(O)c([N+](=O)[O-])c1", "note": "[Entacapone, (E)-2-cyano-N,N-diethyl-3-(3,4-dihydroxy-5-nitrophenyl)acrylamide]", "values": [{"measurement": "pattern of locomotor activity and stereotyped behaviour versus corresponding controls", "setting": "rats; given p.o. six hours before amphetamine challenge (0.5, 2.0, 4.0 mg/kg s.c.)", "result": "same pattern of locomotor activity and stereotyped behaviour as their corresponding controls"}]}
{"molecule": "Cc1ccc(C(=O)c2cc(O)c(O)c([N+](=O)[O-])c2)cc1", "note": "[Tolcapone, 3,4-dihydroxy4′-methyl-5-nitrobenzophenone, reference compound]", "values": [{"measurement": "% inhibition of COMT activity, brain, 0.5 h", "setting": "brain COMT; rat brain homogenate, 0.5 h after administration by gastric tube, mean ± S.E.M., n=4", "result": "98.9 ± 0.1", "unit": "%"}, {"measurement": "% inhibition of COMT activity, brain, 1 h", "setting": "brain COMT; rat brain homogenate, 1 h after administration by gastric tube, mean ± S.E.M., n=4", "result": "98.7 ± 0.2", "unit": "%"}, {"measurement": "% inhibition of COMT activity, brain, 3 h", "setting": "brain COMT; rat brain homogenate, 3 h after administration by gastric tube, mean ± S.E.M., n=4", "result": "97.0 ± 0.5", "unit": "%"}, {"measurement": "% inhibition of COMT activity, brain, 6 h", "setting": "brain COMT; rat brain homogenate, 6 h after administration by gastric tube, mean ± S.E.M., n=4", "result": "85.8 ± 8.2", "unit": "%"}, {"measurement": "% inhibition of COMT activity, brain, 9 h", "setting": "brain COMT; rat brain homogenate, 9 h after administration by gastric tube, mean ± S.E.M., n=4", "result": "77.5 ± 1.8", "unit": "%"}, {"measurement": "inhibition in brain and liver COMT at 6 h and 9 h after administration", "setting": "brain COMT; rat, oral, 6 h and 9 h, brain and liver", "result": "marked inhibition"}, {"measurement": "ED50", "setting": "brain COMT; rat, po, read-out: ED50 for inhibiting brain COMT", "result": "1.6 ± 0.1", "unit": "mg/kg"}, {"measurement": "% inhibition of COMT activity, liver, 0.5 h", "setting": "liver COMT; rat liver homogenate, 0.5 h after administration by gastric tube, mean ± S.E.M., n=4", "result": "100.0 ± 0.0", "unit": "%"}, {"measurement": "% inhibition of COMT activity, liver, 1 h", "setting": "liver COMT; rat liver homogenate, 1 h after administration by gastric tube, mean ± S.E.M., n=4", "result": "99.9 ± 0.1", "unit": "%"}, {"measurement": "% inhibition of COMT activity, liver, 3 h", "setting": "liver COMT; rat liver homogenate, 3 h after administration by gastric tube, mean ± S.E.M., n=4", "result": "98.0 ± 0.7", "unit": "%"}, {"measurement": "% inhibition of COMT activity, liver, 6 h", "setting": "liver COMT; rat liver homogenate, 6 h after administration by gastric tube, mean ± S.E.M., n=4", "result": "94.1 ± 0.3", "unit": "%"}, {"measurement": "% inhibition of COMT activity, liver, 9 h", "setting": "liver COMT; rat liver homogenate, 9 h after administration by gastric tube, mean ± S.E.M., n=4", "result": "67.0 ± 4.0", "unit": "%"}, {"measurement": "ED50", "setting": "liver COMT; rat, po, read-out: ED50 for inhibiting liver COMT", "result": "0.7 ± 0.1", "unit": "mg/kg"}, {"measurement": "duration of stereotyped behavior in rats given 4.0 mg/kg amphetamine", "setting": "rats; [3]", "result": "increased two-fold"}, {"measurement": "locomotor activity in rats given 4.0 mg/kg amphetamine", "setting": "rats; [3]", "result": "marked decrease in locomotor activity"}, {"measurement": "locomotor activity in rats treated with 0.5 and 2.0 mg/kg amphetamine", "setting": "rats; [3]", "result": "significantly increase locomotor activity"}, {"measurement": "half-life", "setting": "[1]", "result": 2, "unit": "h"}]}
{"molecule": "CNCC(O)c1ccc(O)c(O)c1", "note": "(stereo not drawn) [adrenaline, reference compound]", "values": [{"measurement": "Vmax of adrenaline O-methylation, brain", "setting": "rat brain COMT", "result": "1.35±0.02", "unit": "nmol mg protein^−1 h^−‘"}, {"measurement": "Vmax of adrenaline O-methylation, liver", "setting": "rat liver COMT", "result": "61.6±3.8", "unit": "nmol mg protein^−1 h^−‘"}]}
{"molecule": "CC(N)Cc1ccccc1", "note": "(stereo not drawn) [amphetamine]", "values": [{"measurement": "duration of stereotypies during the 600 s observation period", "setting": "rats; amphetamine 4.0 mg/kg s.c. alone", "result": 250, "unit": "s"}, {"measurement": "horizontal activity and rearing", "setting": "rats; amphetamine 0.5 and 2.0 mg/kg s.c. alone", "result": "dose-dependent increases"}]}
{"molecule": "rat brain COMT (Rattus norvegicus) (protein) MPLAAVSLGLLLLALLLLLRHLGWGLVTIFWFEYVLQPVHNLIMGDTKEQRILRYVQQNAKPGDPQSVLEAIDTYCTQKEWAMNVGDAKGQIMDAVIREYSPSLVLELGAYCGYSAVRMARLLQPGARLLTMEMNPDYAAITQQMLNFAGLQDKVTILNGASQDLIPQLKKKYDVDTLDMVFLDHWKDRYLPDTLLLEKCGLLRKGTVLLADNVIVPGTPDFLAYVRGSSSFECTHYSSYLEYMKVVDGLEKAIYQGPSSPDKS", "values": [{"measurement": "Km", "setting": "[2]; other: whole brain homogenate", "result": 0.7, "unit": "µM"}]}
{"molecule": "rat liver COMT (Rattus norvegicus) (protein) MGDTKEQRILRYVQQNAKPGDPQSVLEAIDTYCTQKEWAMNVGDAKGQIMDAVIREYSPSLVLELGAYCGYSAVRMARLLQPGARLLTMEMNPDYAAITQQMLNFAGLQDKVTILNGASQDLIPQLKKKYDVDTLDMVFLDHWKDRYLPDTLLLEKCGLLRKGTVLLADNVIVPGTPDFLAYVRGSSSFECTHYSSYLEYMKVVDGLEKAIYQGPSSPDKS", "values": [{"measurement": "Km", "setting": "[2]; other: liver homogenate", "result": "238.5 (128.5; 348.5) μM"}]}
